US20260042764A1, “COMPOSITIONS AND METHODS FOR INHIBITION OF KRAS” (TheRas, Inc., priority 2022, published 2026)
Like-named read-outs stand apart in the source and are kept apart here.

Experiments:
[1] = tested on: H358 cells (KRAS G12C); assay: Cell-based pERK HTRF assay in H358 cells (Biological Example 5)
Description: (§1) Biological Example 5: Cell-based PERK HTRF assay in AsPC-1, SW1900, HPAC, Capan-2, RKN, H358, HCT116, KP-2, H1573, A549, MKN1, and HT1080 cells
(§2) The inhibition of ERK phosphorylation, as measured using the HTRF Advanced Phospho-ERK 1/2 (Thr202/Tyr204) Detection Assay kit (Perkin Elmer), was used to determine the effectiveness of test compounds in disrupting KRAS-driven protein/effector signaling in cells.
(§3) On day 1, cells were seeded into 96-well plates at 2.5×10^4 cells/well in 100 μL of complete growth media supplemented with 10% fetal bovine serum (FBS) and incubated at 37° C., in the presence of 5% CO2.
(§4) On day 2, cells were treated with compounds diluted in DMSO at 0.25% final DMSO concentration. Compounds were dosed in a 9-point concentration curve with three-fold dilution between concentrations. Cells were incubated in the presence of compound for two hours at 37° C. Following this treatment period, cells were harvested by aspirating the media, adding 40 μL of kit-supplied 1x lysis buffer per well, and shaking for 30 minutes at 250 rpm at room temperature.
(§5) Following cell lysis, samples were homogenized by pipetting up and down twenty times and 16 μL of cell lysate per well was transferred from the 96-well cell culture plate to two wells of a 384-well detection plate. A complete detection buffer was prepared by diluting D2 and Eu Cryptate antibodies 1:20 in kit-provided detection solution, 4 μL of complete detection buffer was then added to each well with lysate. Plates were incubated with gentle rocking for 24 hours at 4° C.
(§6) Following this incubation period, plates were centrifuged at 500×g for one minute and analyzed on a CLARIOstar plate reader. Data was imported into Microsoft Excel and the signal from the 665 nm channel was divided by the signal from the 620 nm channel. % pERK was calculated as: […]
(§7) Data was imported to the Prism software package (Graphpad) and EC50 values were calculated using the log (inhibitor) vs, response—variable slopc (Four parameters) model.

[2] = tested on: A549 cells (KRAS G12S); assay: Cell-based pERK HTRF assay in A549 cells (Biological Example 5)
Description: as §1, §2, §3, §4, §5, §6, §7

[3] = tested on: HT1080 cells (NRAS); assay: Cell-based pERK HTRF assay in HT1080 cells (Biological Example 5)
Description: as §1, §2, §3, §4, §5, §6, §7

[4] = tested on: HPAC cells (KRAS G12D); assay: Cell-based pERK HTRF assay in HPAC cells (Biological Example 5)
Description: as §1, §2, §3, §4, §5, §6, §7

[5] = tested on: HPAC cells (KRAS G12D); assay: 3D Cell viability assay in HPAC cells (Biological Example 6); type: cell-based; settings: HPAC (KRAS G12D) spheroids
Description: Biological Example 6: 3D Cell viability assay in AsPC-1, SW1900, HPAC, Capan-2, RKN, H358, HCT116, KP-2, H1573, A549, MKN1, and HT1080 cells
The inhibition of cellular viability as a result of test compound treatment in a spheroid assay was measured using the CellTiter-Glow 3D Cell Viability Assay (Promega).
On Day 1, 1000 cells per well were seeded in 150 μL of complete growth media supplemented with 10% fetal bovine serum (FBS) and incubated at 37° C., in the presence of 5% CO2 in 96-well ultra-low attachment microplates (Corning) for 48 hours undisturbed to allow spheroids to form.
Following spheroid formation, cells were treated with compounds diluted in DMSO at 0.25% final DMSO concentration. Compounds were dosed in a 9-point concentration curve with three-fold dilution between concentrations. Cells were incubated in the presence of compound for 72 hours at 37° C., in the presence of 5% CO2.
Following this incubation period, the kit-provided CTG reagent was allowed to equilibrate for 30 minutes at room temperature, 150 μL of equilibrated CTG reagent was added to each well, and the plate was sealed before shaking at 250 rpm for 10 minutes at room temperature to lyse the cells, 150 μL of lysate per well was transferred to a 96-well plate and luminescence was read on a CLARIOstar plate reader.
Data was imported into the Prism software package (Graphpad) and EC50 values were calculated using the log (inhibitor) vs, response—variable slope (Four parameters) model.

[6] = tested on: SW1900 cells (KRAS G12D); assay: Cell-based pERK HTRF assay in SW1900 cells (Biological Example 5)
Description: as §1, §2, §3, §4, §5, §6, §7

[7] = Homo sapiens, NCI-H358, H358 (KRAS G12C) cells
[8] = Homo sapiens, SW1990, SW1990 cells (text: SW1900, KRAS G12D)
[9] = SW1990 cells (text: SW1900, KRAS G12D)

SMILES	IC50 [1, 7] [nM]	IC50 ([2]; Homo sapiens) [nM]	IC50 ([3]; Homo sapiens, HT-1080) [nM]	IC50 ([4]; Homo sapiens, HPAC) [nM]	IC50 ([5]; Homo sapiens, HPAC, 72 h) [nM]	IC50 [6, 8] [nM]	IC50 ([1]; H358 (KRAS G12C) cells) [nM]	IC50 [2] [nM]	IC50 [3] [nM]	IC50 [4] [nM]	IC50 ([5]; 72 hours) [nM]	IC50 [6, 9] [nM]
CC(=O)N1CC[C@@H](N(C)c2nc(OC[C@@]34CCCN3C[C@H](F)C4)nc3c(F)c(-c4ccc(F)c5sc(N)c(C#N)c45)c(Cl)cc23)[C@H]1C [Compound 398]	≤ 100	≤ 100	> 1000	100 to 1000	100 to 1000	≤ 100						
CC(=O)N1CC[C@@H](N(C)c2nc(OC[C@@]34CCCN3C[C@H](F)C4)nc3c(F)c(-c4ccc(F)c5sc(N)c(C#N)c45)c(C(F)(F)F)cc23)[C@H]1C (single isomer, unassigned) [Compound 193]	≤ 100	≤ 100	> 1000	≤ 100	100 to 1000	≤ 100						
CCN(c1nc(OC[C@@]23CCCN2C[C@H](F)C3)nc2c(F)c(-c3ccc(F)c4sc(N)c(C#N)c34)c(C(F)(F)F)cc12)[C@@H]1CCN(C(C)=O)C1 [Compound 268]	≤ 100	≤ 100	> 1000	≤ 100	≤ 100	≤ 100						
CCN(c1nc(OC[C@@]23CCCN2C[C@H](F)C3)nc2c(F)c(-c3ccc(F)c4sc(N)c(C#N)c34)c(Cl)cc12)[C@@H]1CCN(C(C)=O)[C@@H]1C [Compound 323]	≤ 100	≤ 100	> 1000	≤ 100	≤ 100	≤ 100						
N#Cc1c(N)sc2c(F)ccc(-c3c(C(F)(F)F)cc4c(N5CCCOCC5)nc(OC[C@@]56CCCN5C[C@H](F)C6)nc4c3F)c12 [Compound 232]	≤ 100	100 to 1000	> 1000	≤ 100	> 1000	≤ 100						
N#Cc1c(N)sc2c(F)ccc(-c3c(C(F)(F)F)cc4c(N5CCC[C@@H](O)C5)nc(OC[C@@]56CCCN5C[C@H](F)C6)nc4c3F)c12 [Compound 234]	≤ 100	≤ 100	> 1000	100 to 1000	> 1000	≤ 100						
CCN(c1nc(OC[C@@]23CCCN2C[C@H](F)C3)nc2c(F)c(-c3ccc(F)c4sc(N)c(C#N)c34)c(C(F)(F)F)cc12)[C@H]1CCN(C(C)=O)C1 [Compound 262]	≤ 100	≤ 100	> 1000	≤ 100	≤ 100	≤ 100						
N#Cc1c(N)sc2c(F)ccc(-c3c(C(F)(F)F)cc4c(N5CCOCC5)nc(OC[C@@]56CCCN5C[C@H](F)C6)nc4c3F)c12 (single isomer, unassigned) [Compound 198]	≤ 100	100 to 1000	> 1000	100 to 1000	100 to 1000	≤ 100						
N#Cc1cnn2c1CN(c1nc(OC[C@@]34CCCN3C[C@H](F)C4)nc3c(F)c(-c4ccc(F)c5sc(N)c(C#N)c45)c(C(F)(F)F)cc13)CC2 [Compound 392]	≤ 100	100 to 1000	> 1000	≤ 100	100 to 1000	≤ 100						
N#Cc1c(N)sc2c(F)ccc(-c3c(C(F)(F)F)cc4c(N5CC6CC(C5)O6)nc(OC[C@@]56CCCN5C[C@H](F)C6)nc4c3F)c12 (single isomer, unassigned) [Compound 275]	≤ 100	≤ 100	> 1000	100 to 1000	> 1000	≤ 100						
CN(c1nc(OC[C@@]23CCCN2C[C@H](F)C3)nc2c(F)c(-c3ccc(F)c4sc(N)c(C#N)c34)c(C(F)(F)F)cc12)[C@H]1C[C@@H](O)C1 [Compound 19, 2-amino-7-fluoro-4-((S)-8-fluoro-2-(((2R,7aS)-2-fluorotetrahydro-1H-pyrrolizin-7a(5H)-yl)methoxy)-4-(((1s,3R)-3-hydroxycyclobutyl)(methyl)amino)-6-(trifluoromethyl)quinazolin-7-yl)benzo[b]thiophene-3-carbonitrile]							≤ 100	100 to 1000	> 1000	≤ 100	100 to 1000	≤ 100
CCC(=O)N1C[C@@H](N(CC)c2nc(OC[C@@]34CCCN3C[C@H](F)C4)nc3c(F)c(-c4ccc(F)c5sc(N)c(C#N)c45)c(C(F)(F)F)cc23)C[C@H]1C [Compound 442]	≤ 100	100 to 1000	> 1000	≤ 100	100 to 1000	≤ 100						
CCN(c1nc(OC[C@@]23CCCN2C[C@H](F)C3)nc2c(F)c(-c3ccc(F)c4sc(N)c(C#N)c34)c(C(F)(F)F)cc12)[C@H]1CCN(C(=O)C(C)C)C1 [Compound 332]		≤ 100	> 1000		100 to 1000		≤ 100			≤ 100		≤ 100
C[C@@H]1[C@H](N(C)c2nc(OC[C@@]34CCCN3C[C@H](F)C4)nc3c(F)c(-c4ccc(F)c5sc(N)c(C#N)c45)c(C(F)(F)F)cc23)CCN1C(=O)C1CC1 [Compound 258]	≤ 100	≤ 100	> 1000	> 1000	100 to 1000	≤ 100						
C[C@@H]1[C@H](N(C)c2nc(OC[C@@]34CCCN3C[C@H](F)C4)nc3c(F)c(-c4ccc(F)c5sc(N)c(C#N)c45)c(C(F)(F)F)cc23)CC(=O)N1C [Compound 440]	100 to 1000	100 to 1000	> 1000	≤ 100	100 to 1000	≤ 100						
CN(Cc1cccnc1N)c1nc(OC[C@@]23CCCN2C[C@H](F)C3)nc2c(F)c(-c3ccc(F)c4sc(N)c(C#N)c34)c(C(F)(F)F)cc12 [Compound 390]	≤ 100	≤ 100	> 1000	≤ 100	100 to 1000	≤ 100						
